Results: publication PMC12363211, “Rationally designed self-assembled peptide nanofibers provoke robust humoral immunity against nervous necrosis virus” (Journal of Virology, 2025)
Marks after values point to notes of the source that are not given here.

Columns and labels:
grouper = test: In vivo safety: survival, weight and pathology of vaccinated grouper; details: i.p. 2 mM, 28-day period
Description: NNV-free pearl gentian grouper (Epinephelus lanceolatus × Epinephelus fuscoguttatus) juveniles (5.12 ± 0.63 g) were purchased from a commercial fish farm (Wenchang, Hainan, China). Real-time quantitative polymerase chain reaction (qPCR) was used to detect NNV in purchased fish. Primers of NNVdetection F: […] and NNVdetection R: […] were used for NNV detection. Grouper were reared in a recirculating water system with filtered seawater at 28.0 ± 1.0°C. Each tank contains 50 L seawater with continuous aeration. Fish were fed twice daily and acclimated for 15 days before experiments.
Safety evaluation of the CP^64-83-Q11 nanofiber
The safety evaluation of the synthesized nanofiber was assessed using in vitro and in vivo models. For the in vitro cytotoxicity evaluation, the standard MTT assay was employed. GF-1 cells and grouper macrophages were seeded into 96-well plates at a density of 5 × 10⁵ cells per well. These cells were then exposed to varying concentrations (1, 5, 10, 20, and 40 µg/mL) of Q11, CP^64-83, CP, or CP^64-83-Q11 for 24 h. […] Absorbance was then measured at 490 nm using a microplate reader. Cell viability was calculated as follows: Cell viability = (ODtreatment group − ODblank)/(ODcontrol group − ODblank) × 100%. […] Additionally, the initial and final weights of the fish were monitored throughout the 28-day period.

[1] = Nanofiber self-assembly and morphology (TEM); assay type: physicochemical; details: in the salts (pH = 7)
Description: CP^64-83-Q11 nanofiber synthesis and characteristics
Q11, CP^64-83, and CP^64-83-Q11 peptides were synthesized and purified by Genecreate Co. (Wuhan). […] The morphology of the CP^64-83-Q11 was determined by transmission electron microscopy (TEM) using a Hitachi Model H-7700 microscope (Hitachi, Japan). The particle size of reassembled CP^64-83-Q11 was determined using a Zetasizer (nano ZS90, Malvern Panalytical, UK). The secondary structure of CP^64-83-Q11 nanovaccine was analyzed by circular dichroism (CD) spectra (Chirascan V100, Applied Photophysics, UK).

Sequence: QQKFQFQFEQQ [Q11, Q11 peptide (…), a minimalist self-assembling motif]
- Survival rate (grouper; unchallenged vaccinated grouper, 78 fish per group, all groups incl. control share letter a): 98.26 ± 3.37^a %
- Final weight (grouper; vaccinated grouper, initial weight 5.12 ± 0.63 g, all groups incl. control (8.96 ± 1.02) share letter a): 8.72 ± 0.56^a g
- self-assembly into nanofibers [1]: could self-assemble into nanofibers in the salts (pH = 7)
